Reference: patent US20240158384A1, “CB2 RECEPTOR AGONISTS” (The Board of Trustees of the Leland Stanford Junior …, priority 2020, published 2024)
“Also recorded” adds a separate entry of the source.

Experiments:
[1] = Plasma and brain pharmacokinetics in mice; type: in vivo; settings: male, C57BL/6, mouse, 10 mg/kg
Protocol: Plasma and brain concentrations of Compounds 11, 22, 16, and 24 were determined by LC-MS/MS after IV and PO dosing in male C57BL/6 mice at 10 mg/kg. Data are shown in FIGS. 10A-10D for Compounds 11, 22, 16, and 24, respectively.
Detailed characterization data was collected for Compound 22. Primary assays were carried out according to Examples 2 and 3, while other assays were carried out according to standard methods.

[2] = molecular target: human CB2R (Homo sapiens, UniProt P34972); test: PathHunter β-Arrestin assay, beta-arrestin recruitment; type: cell-based
human CB2R, sequence (P34972 whole entry): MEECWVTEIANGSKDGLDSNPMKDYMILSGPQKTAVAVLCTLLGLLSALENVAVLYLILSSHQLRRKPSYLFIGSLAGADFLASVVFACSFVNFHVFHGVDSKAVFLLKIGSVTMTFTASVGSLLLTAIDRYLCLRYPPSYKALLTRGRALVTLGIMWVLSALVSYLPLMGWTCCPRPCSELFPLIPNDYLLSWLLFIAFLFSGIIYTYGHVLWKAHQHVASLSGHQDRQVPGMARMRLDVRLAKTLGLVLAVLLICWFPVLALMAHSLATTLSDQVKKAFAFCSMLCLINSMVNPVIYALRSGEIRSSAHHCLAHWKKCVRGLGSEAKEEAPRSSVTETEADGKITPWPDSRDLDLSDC
Protocol: The assay was performed using the PathHunter β-Arrestin human CB2 cell line (catalog no. 93-0706C2) and using the PathHunter® β-Arrestin Assay for GPCR Cell Lines (source: DiscoveRx, Fremont, CA, USA), according to the manufacturer's protocol (https://www.discoverx.com/tools-resources/document-resource-library/documents/user-manual-pathhunter-% CE % B2-arrestin-assay-for-gpcr-c). Briefly, cells were seeded at a density of 10,000 cells per well in a 96-well plate and incubated overnight (16-18 h) in a humidified atmosphere at 37° C. and 5% C02. Agonist prepared in PBS was added and the assay plate incubated for 3 h in a humidified atmosphere at 37° C. and 5% C02. Working detection solution was added and the plate was incubated for 1 h in the dark at room temperature. Chemiluminescence was measured on an CLARIOstar plate reader (BMG LABTECH Inc., Cary, NC, USA).

[3] = tested on: DA response to reward; test: GRAB-DA fiber photometry during operant task for sucrose reward; type: in vivo, mouse; settings: injected 30 min before task, n=3, vs vehicle
Protocol: In a second experiment, the same mice (n=3) were trained to nose poke a dedicated port to gain access to sucrose reward. During the task, GRAB-DA was used to measure DA release in response to reward. After ˜2 weeks of training, the effect of Compound 22 vs. vehicle on the DA response to reward was examined. On the first day, either drug or vehicle was injected followed by waiting 30 min, and then recording DA during the task. The order of drug vs. vehicle was counterbalanced between mice. […] Thus, Compound 22 appears to be capable of modulating both spontaneous and reward-related DA release.

[4] = tested on: Male C57Bl6J mice; test: Amphetamine-induced hyperactivity test; type: in vivo, mouse; settings: compound i.p. 30 min before AMPH 2 mg/kg i.p., vs vehicle
Protocol: Male C57Bl6J mice were evaluated in an activity chamber apparatus for the amphetamine-induced hyperactivity test. […] To determine the effects of Compound 22 on amphetamine-induced hyperactivity, mice were placed in the activity chamber for a 30 min baseline period. At the end of that period, mice were removed from the chamber, dosed intraperitoneally with Compound 22 (1 mg/kg, 3 mg/kg, or 10 mg/kg) or vehicle and returned to the home cage. Thirty minutes after dosing, mice were dosed (ip) with amphetamine (AMPH, 2 mg/kg) and immediately placed into the activity chamber for a one-hour post-dose session.

CC(C)(CO)c1cc(NC(=O)N2CCCN2c2ccc(C(F)(F)F)cc2)no1 [Compound 22, N-(5-(1-hydroxy-2-methylpropan-2-yl)isoxazol-3-yl)-2-(4-(trifluoromethyl)phenyl)pyrazolidine-1-carboxamide]
Kp at 24 h ([1]; in vivo, Via oral administration, 3 mice, at 24 h, read-out: Brain to plasma ratio): 0.97 | bioavailability ([1]; plasma, Oral bioavailability): 100% | EC50 [2]: 578 nM | Activation of beta-arrestin pathway (in words) ([2]; hCB2, CP-55940 as control): weak beta-arrestin activity | melting point: 142 to 146 °C | Ability to perform task and maximum reward-induced DA release [3]: not a significant effect on the ability of mice to perform this task or the maximum reward-induced DA release | DA response curve to sucrose reward [3]: appeared to widen the DA response curve | Amphetamine-induced hyperactivity [4]: reduces the hyperactivity induced by AMPH compared to vehicle controls, with significant reduction at 10 mg/kg; also recorded: able to reduce hyperactivity at doses as low as 0.1 mg/kg, i.p
